Source: US20090318426A1, “USE OF FLUMAZENIL IN THE MANUFACTURE OF A MEDICAMENT FOR THE TREATMENT OF DEPRESSIVE DISORDERS” (priority 2006, published 2009)

Experiments:
[1] = test system: patients presenting a depressive disorder; assay: Clinical observation of mood, attention and sleep after administration of flumazenil; type: in vivo, human; conditions: for changes in mood: three patients
Method: (§1) Three patients presenting a depressive disorder were subjected to treatment.
(§2) Flumazenil was administered in doses of 0.2 mg every 3 minutes (up to a total of 2 mg/day). […] Before starting the first administration of flumazenil, a test consisting of the administration of a bolus of 0.1 mg of flumazenil was conducted to evaluate the reaction of the subject.

[2] = test system: patients presenting a depressive disorder; conditions: in vivo
Method: as §1
During the assessment prior to the admission, a thorough psychopathological and medical evaluation was conducted first thing in the morning (9:00 AM). The medical examination included an electrocardiogram and a complete blood analysis, in which the different cell series (red blood cells, white blood cells and platelets) and the biochemical profile (glucose, creatinine, urea, cholesterol and the fractions thereof, triglycerides, alkaline phosphatase, GOT, GPT, GGT, LDH, total proteins, etc.) were studied.
Flumazenil was administered in doses of 0.2 mg every 3 minutes (up to a total of 2 mg/day). This quantity per dose was established to reduce as much as possible undesirable side effects related to possible interactions with other drugs or psychopathologies. Before starting the first administration of flumazenil, a test consisting of the administration of a bolus of 0.1 mg of flumazenil was conducted to evaluate the reaction of the subject.

[3] = test system: patients presenting a depressive disorder; assay: SCL-90-R (Symptom Checklist 90 Revised) scale in patients treated with flumazenil; type: in vivo, human; conditions: for SCL-90-R at the end: after third administration of flumazenil 2 mg/day, 0.2 mg every 3 minutes
Method: as §1, §2

Question: What does the source list for `CCOC(=O)c1ncn2c1CN(C)C(=O)c1cc(F)ccc1-2` [Flumazenil, 8-fluoro-5,6-dihydro-5-methyl-6-oxo-4H-imidazol[1,5-α][1,4]benzodiazepine-3-carboxylic acid ethyl ester]?
Answer: mood of the treated patients ([1]; 2 mg/day divided into doses of 0.2 mg every 3 minutes): substantially improves the mood; attention, concentration and other superior faculties ([1]; after third administration): improvement of attention, concentration and other superior faculties being more evident; existing sleep disorders ([1]; after third administration): completely corrected; sleep (early waking) ([1]; patient P01, first night after first administration): did not occur on this first night; sleep (difficulty in falling asleep) ([1]; patient P03, first night after first administration): fell asleep early in the night; changes in mood ([1]; after first administration, with respect to time of admission): feeling of wellbeing and more calmness; changes in mood ([1]; after second administration): better mood; time until induced improvement reaches a clinical level ([1]; treatment of depressive disorders): less than one week; blood pressure values [2]: remained within the range of normal; cardiovascular values [2]: remained within normal parameters; cardiovascular values (heart rate and blood pressure) [2]: did not undergo significant changes; heart rate values [2]: did not undergo any significant increases; secondary symptoms [2]: Secondary symptoms did not occur; symptoms associated to administration [2]: no symptoms associated to such administration; SCL-90-R depression values ([3]; after third administration, versus start): reduction in the depression values; SCL-90-R at the end ([3]; patient P01 (associated cocaine consumption), SCL-90-R at the start 78): 0; SCL-90-R at the end ([3]; patient P02 (associated cocaine consumption), SCL-90-R at the start 48): 30; SCL-90-R at the end ([3]; patient P03 (associated alcohol consumption), SCL-90-R at the start 92): 25
